Measurements: ChEMBL document CHEMBL4229332, “Novel multi-target azinesulfonamides of cyclic amine derivatives as potential antipsychotics with pro-social and pro-cognitive effects” (Eur J Med Chem, 2018)

Key:
[1] = biological target: 5-hydroxytryptamine receptor 2A (Homo sapiens, UniProt P28223); experiment: biochemical; type: cell-based, CHO-K1
[2] = biological target: T1, 5-hydroxytryptamine receptor 1A (Homo sapiens) (UniProt P08908); experiment: Antagonist activity at human 5-HT1AR expressed in mouse BA/F3 cells assessed as inhibition of serotonin-induced calcium flux at 10^-6 M by fluorimetric method; type: functional, cell-based
T1 sequence (whole entry): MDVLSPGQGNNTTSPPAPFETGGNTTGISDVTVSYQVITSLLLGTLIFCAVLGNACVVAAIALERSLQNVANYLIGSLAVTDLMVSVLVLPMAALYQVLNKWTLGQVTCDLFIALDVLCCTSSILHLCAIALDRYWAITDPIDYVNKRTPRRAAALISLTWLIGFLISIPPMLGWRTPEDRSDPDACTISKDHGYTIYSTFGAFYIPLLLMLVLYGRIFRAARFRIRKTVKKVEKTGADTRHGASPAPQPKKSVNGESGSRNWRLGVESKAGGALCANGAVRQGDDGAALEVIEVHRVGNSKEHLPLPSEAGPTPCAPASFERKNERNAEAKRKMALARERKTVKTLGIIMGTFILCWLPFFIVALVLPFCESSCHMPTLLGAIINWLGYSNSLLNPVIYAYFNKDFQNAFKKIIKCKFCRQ

[3] = Drug level in Wistar rat plasma at 3 mg/kg, ip measured after 30 mins by LC-MS/MS analysis; type: ADME, organism-based
[4] = Drug level in Wistar rat plasma at 3 mg/kg, ip measured after 60 mins by LC-MS/MS analysis; type: ADME, organism-based
[5] = Drug level in Wistar rat brain at 3 mg/kg, ip measured after 15 mins by LC-MS/MS analysis; type: ADME, organism-based; conditions: read-out: Drug uptake
[6] = Drug level in Wistar rat brain at 3 mg/kg, ip measured after 30 mins by LC-MS/MS analysis; type: ADME, organism-based; conditions: read-out: Drug uptake
[7] = Drug level in Wistar rat brain at 3 mg/kg, ip measured after 60 mins by LC-MS/MS analysis; type: ADME, organism-based; conditions: read-out: Drug uptake
Cavia porcellus [8] = experiment: Cardiotoxicity in guinea pig assessed as effect on QT interval time at 5 mg/kg, ip measured after 10 mins by ECG analysis (reference value: 127.6 to 131.2 milliseconds); type: toxicity, organism-based; conditions: in vivo
Cavia porcellus [9] = experiment: Cardiotoxicity in guinea pig assessed as effect on QT interval time at 5 mg/kg, ip measured after 40 mins by ECG analysis (reference value: 127.6 to 131.2 milliseconds); type: toxicity, organism-based; conditions: in vivo
Cavia porcellus [10] = experiment: Cardiotoxicity in guinea pig assessed as effect on QT interval time at 5 mg/kg, ip measured after 70 mins by ECG analysis (reference value: 127.6 to 131.2 milliseconds); type: toxicity, organism-based; conditions: in vivo
Cavia porcellus [11] = experiment: Cardiotoxicity in guinea pig assessed as effect on QT interval time at 5 mg/kg, ip measured after 80 mins by ECG analysis (reference value: 127.6 to 131.2 milliseconds); type: toxicity, organism-based; conditions: in vivo
Cavia porcellus [12] = experiment: Cardiotoxicity in guinea pig assessed as effect on PR interval time at 5 mg/kg, ip measured after 30 mins by ECG analysis (reference value: 58.8 to 63.8 milliseconds); type: toxicity, organism-based; conditions: in vivo, 0.5 h
Cavia porcellus [13] = experiment: Cardiotoxicity in guinea pig assessed as effect on PR interval time at 5 mg/kg, ip measured after 50 mins by ECG analysis (reference value: 58.8 to 63.8 milliseconds); type: toxicity, organism-based; conditions: in vivo
Cavia porcellus [14] = experiment: Cardiotoxicity in guinea pig assessed as effect on PR interval time at 5 mg/kg, ip measured after 70 mins by ECG analysis (reference value: 58.8 to 63.8 milliseconds); type: toxicity, organism-based; conditions: in vivo
Cavia porcellus [15] = experiment: Cardiotoxicity in guinea pig assessed as effect on QRS interval time at 5 mg/kg, ip measured after 10 mins by ECG analysis (reference value: 26.2 to 31.6 milliseconds); type: toxicity, organism-based; conditions: in vivo
Cavia porcellus [16] = experiment: Cardiotoxicity in guinea pig assessed as effect on QRS interval time at 5 mg/kg, ip measured after 40 mins by ECG analysis (reference value: 26.2 to 31.6 milliseconds); type: toxicity, organism-based; conditions: in vivo
Cavia porcellus [17] = experiment: Cardiotoxicity in guinea pig assessed as effect on RR interval time at 5 mg/kg, ip measured after 20 mins by ECG analysis (reference value: 208.4 to 238.4 milliseconds); type: toxicity, organism-based; conditions: in vivo
Cavia porcellus [18] = experiment: Cardiotoxicity in guinea pig assessed as effect on RR interval time at 5 mg/kg, ip measured after 30 mins by ECG analysis (reference value: 208.4 to 238.4 milliseconds); type: toxicity, organism-based; conditions: in vivo, 0.5 h
Cavia porcellus [19] = experiment: Cardiotoxicity in guinea pig assessed as effect on RR interval time at 5 mg/kg, ip measured after 60 mins by ECG analysis (reference value: 208.4 to 238.4 milliseconds); type: toxicity, organism-based; conditions: in vivo, 1 h
Cavia porcellus [20] = experiment: Cardiotoxicity in guinea pig assessed as effect on RR interval time at 5 mg/kg, ip measured after 80 mins by ECG analysis (reference value: 208.4 to 238.4 milliseconds); type: toxicity, organism-based; conditions: in vivo
Cavia porcellus [21] = experiment: Cardiotoxicity in guinea pig assessed as effect on QTc interval time at 5 mg/kg, ip measured after 30 mins by ECG analysis (reference value: […] to […] milliseconds); type: toxicity, organism-based; conditions: in vivo, 0.5 h
Cavia porcellus [22] = experiment: Cardiotoxicity in guinea pig assessed as effect on QTc interval time at 5 mg/kg, ip measured after 60 mins by ECG analysis (reference value: […] to […] milliseconds); type: toxicity, organism-based; conditions: in vivo, 1 h
Cavia porcellus [23] = experiment: Cardiotoxicity in guinea pig assessed as effect on frequence of heart rate at 5 mg/kg, ip measured after 30 mins by ECG analysis (reference value: 262 to 296 /min); type: toxicity, organism-based; conditions: in vivo, 0.5 h
Cavia porcellus [24] = experiment: Cardiotoxicity in guinea pig assessed as effect on frequence of heart rate at 5 mg/kg, ip measured after 80 mins by ECG analysis (reference value: 262 to 296 /min); type: toxicity, organism-based; conditions: in vivo
[25] = Intrinsic clearance in rat liver microsomes at 20 uM at 37 degC measured after 120 mins in presence of NADPH-regenerating system by UPLC-MS analysis; type: ADME, microsome; conditions: read-out: CLH
Cytochrome P450 2C19 = Cytochrome P450 2C19 (Homo sapiens, UniProt P33261); experiment: Inhibition of human supersome CYP2C19 using perazine as substrate assessed as perazine N-demethylation after 30 mins by HPLC-UV detection; type: ADME
Cytochrome P450 2D6 = Cytochrome P450 2D6 (Homo sapiens, UniProt P10635); experiment: Inhibition of human supersome CYP2D6 using bufuralol as substrate assessed as bufuralol 1'-hydroxylation after 30 mins by HPLC-UV detection; type: ADME
[26] = Toxicity in ip dosed Sprague-Dawley rat assessed as sedation pretreated for 60 mins followed by PCP addition measured for 30 mins starting 15 min after rat reintroduction to auto-tracks; type: organism-based; conditions: in vivo
Rattus norvegicus [27] = experiment: Effect on failure incidence during conditioned avoidance response test in Sprague-Dawley rat at 3 mg/kg, ip administered 60 mins prior to testing; type: ADME, organism-based; conditions: in vivo, 1 h
[28] = biological target: T2, 5-hydroxytryptamine receptor 1A (Homo sapiens, UniProt P08908); experiment: biochemical
T2 sequence (P08908 whole entry): T1 sequence (whole entry)
Description: Displacement of [3H]-8-OH-DPAT from human 5-HT1AR expressed in HEK293 cell membranes after 1 hr by microbeta counting method

[29] = biological target: 5-hydroxytryptamine receptor 7 (Homo sapiens, UniProt P34969); experiment: biochemical
Description: Displacement of [3H]-5-CT from human 5-HT7R expressed in HEK293 cell membranes after 1 hr at 37 degC by microbeta counting method

Rattus norvegicus [30] = species on record: Rattus norvegicus; experiment: animal or person; conditions: Sprague-Dawley, ip, read-out: MED
Description: Antipsychotic activity in ip dosed Sprague-Dawley rat assessed as suppression of avoidance behavior by avoiding foot shock administered 60 mins prior to test by conditioned avoidance response test

Cytochrome P450 2D6, sequence (P10635 whole entry): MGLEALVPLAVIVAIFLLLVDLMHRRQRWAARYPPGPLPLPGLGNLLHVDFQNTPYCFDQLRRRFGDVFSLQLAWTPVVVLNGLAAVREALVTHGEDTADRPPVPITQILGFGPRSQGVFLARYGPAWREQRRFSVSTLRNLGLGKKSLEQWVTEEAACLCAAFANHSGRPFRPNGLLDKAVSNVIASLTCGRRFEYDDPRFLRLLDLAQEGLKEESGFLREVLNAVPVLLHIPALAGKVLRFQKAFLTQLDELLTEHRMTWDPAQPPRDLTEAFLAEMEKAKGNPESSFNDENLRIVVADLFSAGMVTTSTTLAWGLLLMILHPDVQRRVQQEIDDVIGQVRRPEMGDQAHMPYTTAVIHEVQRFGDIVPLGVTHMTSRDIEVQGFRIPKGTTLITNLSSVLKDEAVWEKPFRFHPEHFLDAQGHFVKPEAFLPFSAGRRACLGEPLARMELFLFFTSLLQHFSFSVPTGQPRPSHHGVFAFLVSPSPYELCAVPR
Cytochrome P450 2C19, sequence (P33261 whole entry): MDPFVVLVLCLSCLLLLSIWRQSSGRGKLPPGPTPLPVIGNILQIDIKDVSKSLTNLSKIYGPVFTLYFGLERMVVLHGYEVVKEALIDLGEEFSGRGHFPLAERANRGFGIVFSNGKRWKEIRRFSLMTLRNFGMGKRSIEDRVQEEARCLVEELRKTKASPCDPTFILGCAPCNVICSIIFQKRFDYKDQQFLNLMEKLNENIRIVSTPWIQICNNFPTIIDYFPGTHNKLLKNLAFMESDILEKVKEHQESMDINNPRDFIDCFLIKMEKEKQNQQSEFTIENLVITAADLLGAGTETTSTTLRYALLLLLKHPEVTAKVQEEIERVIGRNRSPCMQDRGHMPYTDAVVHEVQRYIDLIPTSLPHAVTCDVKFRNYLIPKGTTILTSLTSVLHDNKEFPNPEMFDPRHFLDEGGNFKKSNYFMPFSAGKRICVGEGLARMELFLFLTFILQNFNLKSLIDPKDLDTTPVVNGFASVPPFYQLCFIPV
5-hydroxytryptamine receptor 2A, sequence (P28223 whole entry): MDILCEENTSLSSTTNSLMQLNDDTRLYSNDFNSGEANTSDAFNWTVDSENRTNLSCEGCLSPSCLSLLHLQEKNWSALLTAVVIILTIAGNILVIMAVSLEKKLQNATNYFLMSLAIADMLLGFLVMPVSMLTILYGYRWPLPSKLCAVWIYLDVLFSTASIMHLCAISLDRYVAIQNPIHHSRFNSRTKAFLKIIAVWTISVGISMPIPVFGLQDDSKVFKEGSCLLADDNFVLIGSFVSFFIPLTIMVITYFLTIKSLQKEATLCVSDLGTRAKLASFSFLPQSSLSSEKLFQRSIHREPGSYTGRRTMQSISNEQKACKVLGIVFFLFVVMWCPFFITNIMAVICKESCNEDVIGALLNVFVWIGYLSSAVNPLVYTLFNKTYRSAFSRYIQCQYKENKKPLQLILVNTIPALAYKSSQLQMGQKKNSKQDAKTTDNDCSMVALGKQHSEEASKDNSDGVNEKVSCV
5-hydroxytryptamine receptor 7, sequence (P34969 whole entry): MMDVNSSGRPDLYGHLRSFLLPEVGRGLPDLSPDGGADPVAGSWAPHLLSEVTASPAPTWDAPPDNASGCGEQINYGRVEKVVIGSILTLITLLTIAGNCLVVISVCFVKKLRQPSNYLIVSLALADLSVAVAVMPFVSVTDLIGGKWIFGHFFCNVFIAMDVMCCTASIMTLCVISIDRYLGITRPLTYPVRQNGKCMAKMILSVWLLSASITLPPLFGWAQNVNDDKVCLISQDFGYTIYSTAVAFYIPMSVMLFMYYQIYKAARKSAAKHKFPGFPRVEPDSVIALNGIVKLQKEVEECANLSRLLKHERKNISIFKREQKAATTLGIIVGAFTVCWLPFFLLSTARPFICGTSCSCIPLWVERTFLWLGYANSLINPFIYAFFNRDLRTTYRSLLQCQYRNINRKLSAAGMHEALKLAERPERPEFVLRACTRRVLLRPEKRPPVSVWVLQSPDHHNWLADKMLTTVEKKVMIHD

Row | Compound | Ki [1] [µM] | inhibition [2] [%] | concentration at 0.5 h [3] [µM] | concentration at 1 h [4] [µM] | concentration at 0.25 h [5] [µM] | concentration at 0.5 h [6] [µM] | concentration at 1 h [7] [µM] | Time (Cavia porcellus [8]) [ms] | Time (Cavia porcellus [9]) [ms] | Time (Cavia porcellus [10]) [ms] | Time (Cavia porcellus [11]) [ms] | Time (Cavia porcellus [12]) [ms] | Time (Cavia porcellus [13]) [ms] | Time (Cavia porcellus [14]) [ms] | Time (Cavia porcellus [15]) [ms] | Time (Cavia porcellus [16]) [ms] | Time (Cavia porcellus [17]) [ms] | Time (Cavia porcellus [18]) [ms] | Time (Cavia porcellus [19]) [ms] | Time (Cavia porcellus [20]) [ms] | also measured
1 | O=S(=O)(c1cncc2ccccc12)N1CCC[C@H]1CCN1CCN(c2cccc3sccc23)CC1 | 0.009 | 80 | 0.105 | 0.045 | 0.317 | 0.245 | 0.0893 | 127.4 | 125.2 | 124 | 123.6 | 62.8 | 64.2 | 64.2 | 30.8 | 31.2 | 231.2 | 235.2 | 219.8 | 214 | Time (Cavia porcellus [21]): 262.8 ms; Time (Cavia porcellus [22]): 266.6 ms; Activity (Cavia porcellus [23]): 264 min⁻¹; Activity (Cavia porcellus [24]): 286 min⁻¹; microsomal CLint at 20 µM [25]: 2.81 µL/min/mg; IC50 (Cytochrome P450 2C19): > 100 µM; IC50 (Cytochrome P450 2D6): > 100 µM; MTD at 0.5 h [26]: 3 mg/kg; Activity (Rattus norvegicus [27]): Non-Toxic; Ki [28]: 0.018 µM; Ki [29]: 0.019 µM; minimal effective dose (Rattus norvegicus [30]): 3 mg/kg
2 | O=S(=O)(c1cncc2ccccc12)N1CCC[C@H]1CCN1CCN(c2nsc3ccccc23)CC1 | 0.013 | 87 | 0.177 | 0.0502 | 0.153 | 0.177 | 0.0494 | 121.8 | 125.4 | 125.4 | 125.6 | 58.8 | 60 | 60.8 | 25.4 | 27.6 | 206 | 212.6 | 210.4 | 213 | Time (Cavia porcellus [21]): 280.6 ms; Time (Cavia porcellus [22]): 275.8 ms; Activity (Cavia porcellus [23]): 287 min⁻¹; Activity (Cavia porcellus [24]): 284 min⁻¹; microsomal CLint at 20 µM [25]: 1.73 µL/min/mg; IC50 (Cytochrome P450 2C19): 50 µM; IC50 (Cytochrome P450 2D6): > 100 µM; MTD at 0.5 h [26]: 3 mg/kg; Activity (Rattus norvegicus [27]): Non-Toxic; Ki [28]: 0.037 µM; Ki [29]: 0.009 µM; minimal effective dose (Rattus norvegicus [30]): 3 mg/kg
